Data on 31 compounds can be found in US9649314B2, “Pyrimido[4,5-b]quinoline-4,5(3H,10H)-diones” (NOVARTIS AG, priority 2012, dated 2017).

In this assay the test system is CFTR-Y122X. The assay is described as follows: CFTR-Y122X assay (dual reporter isogenic Hek293 cell lines, Renilla luminescence readthrough). Format: cell-based. The following applies: Homo sapiens. The text has this:
Activity of compounds of the present invention was examined in recombinant, dual reporter isogenic Hek293 cell lines (“CFTR-Y122X assay”). The engineered reporter constructs contained the 18 bp sequence stretch corresponding to a common Y122X PTC mutation in CFTR class I mutant patients (see Sermet-Gaudelus, BMC Medicine, 2007, 5(5)). Instead of a tyrosine (Y) in position 122 of the CFTR protein a TGA stop codon interrupts the open reading frame (Y122X) of the corresponding mRNA. This TGA stop codon triplet (followed by the pyrimidine base cytosine) is permissive to aminoglycoside mediated translational readthrough which served as positive control for high throughput screening. A corresponding TAA stop codon variant and a wildtype non mutated construct was used for confirmation and counter screening. The CFTR sequence was sandwiched between an eGFP reporter, and a triple myc tag sequence fused to a full length Renilla reporter. All sequences, including an intron containing one positioned pre-eGFP (b-globin intron) were cloned in frame. The corresponding expression constructs were stably expressed in the isogenic HEK-R4 cell host (Invitrogen Incorp.) and selected by blasticidin resistance. The isogenic integration of the construct minimizes gene dose effects and improves assay reproducibility. Stably integrated single cell derived clones were selected and characterized for aminoglycoside mediated readthrough. […] Readthrough of Y122X accumulates an intracellular localized fusion protein approximately 65.5 kDa in size as controlled by western blot analysis and immunofluorescence using an anti-renilla antibody. The eGFP reporter pre-PTC mutation serves as visual control for genetic stability of the screening clones and minimizes protein degradation of small fusion protein amounts. In the assay, compound concentration was 10 μM. In miniaturized 1536 well format 2000 cells were dispensed in 4 μl/well and incubated for 24 h at 37° C., 5% CO2. 40 nl compounds were placed on the cells with control wells containing 1 ul Paramomycin and 14.4 mM final concentration. Compounds were incubated for 24 h. Renilla Glo substrate (2.5 ul) was added and plates were centrifuged and processed for luminescence measurement using various readers. Activity calculation was done using the equation: A1 (%)=100*(S−NC)/(AC−NC) where AC, NC and S correspond to active controls (injection of Stimulation buffer=100% stimulation), neutral controls (buffer injection which Iloprost EC10) and screening samples (S). NC corresponds to 0% activity whereas AC is 100% activity (14 mM paromomycin). False positive artefacts were removed in confirmation and validation screening using the same assay format followed by counterscreening using the respective wildtype construct (w/o PTC mutation) cell model. Compounds were tested up to 100 μM compound concentration.

Setting [1] is: HEK293, at the above dose ranges (up to 100 μM), read-out: suppression, % of paromomycin reference activity.
Setting [2] is: HEK293, nonsense mutation suppression, 24 h incubation.
[3] abbreviates: HEK293, nonsense mutation suppression, 100% = 14 mM paromomycin, 24 h incubation, tested up to 100 μM, read-out: Amax [%].

Like-named read-outs stand apart in the source and are kept apart here.

Take `Cn1c2ccccc2c(=O)c2c(=O)n(C3CCCCC3)c(C3CCCCC3)nc21` [2,3-dicyclohexyl-10-methylpyrimido[4,5-b]quinoline-4,5(3H,10H)-dione]: the Emax under setting [1] is < 5%.

`Cn1c2ccccc2c(=O)c2c(=O)n(C3CCCCCC3)c(-c3ccc(C(C)(C)C)cc3)nc21` [2-(4-(tert-butyl)phenyl)-3-cycloheptyl-10-methylpyrimido[4,5-b]quinoline-4,5(3H,10H)-dione]: the Emax under setting [1] was < 5%.

As for `Cn1c2ccccc2c(=O)c2c(=O)n(C3CCCCC3)c(-c3ccc(C(C)(C)C)cc3)nc21` [2-(4-(tert-butyl)phenyl)-3-cyclohexyl-10-methylpyrimido[4,5-b]quinoline-4,5(3H,10H)-dione], the Emax under setting [1] is < 5%.

For `Cn1c2ccccc2c(=O)c2c(=O)n(C3CCCC3)c(-c3ccc(C(C)(C)C)cc3)nc21` [2-(4-(tert-butyl)phenyl)-3-cyclopentyl-10-methylpyrimido[4,5-b]quinoline-4,5(3H,10H)-dione], the Emax under setting [1] was < 5%.

In the case of `Cn1c2ccccc2c(=O)c2c(=O)n(C3CCCCCC3)c(-c3ccc(Cl)cc3)nc21` [2-(4-chlorophenyl)-3-cycloheptyl-10-methylpyrimido[4,5-b]quinoline-4,5(3H,10H)-dione], the Emax under setting [1] was < 5%.

On to `Cn1c2ccccc2c(=O)c2c(=O)n(C3CCCC3)c(-c3ccc(Cl)cc3)nc21` [2-(4-chlorophenyl)-3-cyclopentyl-10-methylpyrimido[4,5-b]quinoline-4,5(3H,10H)-dione], for which the Emax under setting [1] is < 5%.

With `Cc1cc(C)cc(-n2c(C3CCCCC3)nc3c(c(=O)c4ccccc4n3C)c2=O)c1` [2-cyclohexyl-3-(3,5-dimethylphenyl)-10-methylpyrimido[4,5-b]quinoline-4,5(3H,10H)-dione], the Emax under setting [1] is < 5%.

For the compound `CC(C)c1nc2c(c(=O)c3ccccc3n2C)c(=O)n1C1CCOC1` (stereo not drawn) [2-isopropyl-10-methyl-3-(tetrahydrofuran-3-yl)pyrimido[4,5-b]quinoline-4,5(3H,10H)-dione], the Emax under setting [1] is < 5%.

As for `CC(C)c1nc2c(c(=O)c3cc(C(F)(F)F)ccc3n2C)c(=O)n1-c1ccccc1` [2-isopropyl-10-methyl-3-phenyl-7-(trifluoromethyl)pyrimido[4,5-b]quinoline-4,5(3H,10H)-dione], the Emax under setting [1] was < 5%.

As to `Cn1c2ccccc2c(=O)c2c(=O)n(-c3cccc(Cl)c3)c(C3CCCCC3)nc21` [3-(3-chlorophenyl)-2-cyclohexyl-10-methylpyrimido[4,5-b]quinoline-4,5(3H,10H)-dione], under setting [1], the Emax is < 5%.

On to `Cn1c2ccccc2c(=O)c2c(=O)n(C3CCCCCC3)c(-c3ccc(Cl)cc3Cl)nc21` [3-cycloheptyl-2-(2,4-dichlorophenyl)-10-methylpyrimido[4,5-b]quinoline-4,5(3H,10H)-dione], for which, under setting [1], the Emax was < 5%.

Regarding `Cn1c2ccccc2c(=O)c2c(=O)n(C3CCCCCC3)c(-c3ccccc3F)nc21` [3-cycloheptyl-2-(2-fluorophenyl)-10-methylpyrimido[4,5-b]quinoline-4,5(3H,10H)-dione], the Emax under setting [1] is < 5%.

In the case of `Cn1c2ccccc2c(=O)c2c(=O)n(C3CCCCCC3)c(-c3ccc(F)cc3)nc21` [3-cycloheptyl-2-(4-fluorophenyl)-10-methylpyrimido[4,5-b]quinoline-4,5(3H,10H)-dione], the Emax under setting [1] was < 5%.

In the case of `Cn1c2ccccc2c(=O)c2c(=O)n(C3CCCCCC3)c(C3CCCCC3)nc21` [3-cycloheptyl-2-cyclohexyl-10-methylpyrimido[4,5-b]quinoline-4,5(3H,10H)-dione], the Emax under setting [1] was < 5%.

For the compound `Cn1c2ccccc2c(=O)c2c(=O)n(C3CCCCCC3)c(-c3ccc([N+](=O)[O-])cc3)nc21` [3-cycloheptyl-10-methyl-2-(4-nitrophenyl)pyrimido[4,5-b]quinoline-4,5(3H,10H)-dione], the Emax under setting [1] is < 5%.

On to `Cn1c2ccccc2c(=O)c2c(=O)n(C3CCCCC3)c(-c3ccc(Cl)cc3Cl)nc21` [3-cyclohexyl-2-(2,4-dichlorophenyl)-10-methylpyrimido[4,5-b]quinoline-4,5(3H,10H)-dione], for which the Emax under setting [1] is < 5%.

`Cn1c2ccccc2c(=O)c2c(=O)n(C3CCCC3)c(C3CCCN(C4CCCC4)C3)nc21` (stereo not drawn) [3-cyclopentyl-2-(1-cyclopentylpiperidin-3-yl)-10-methylpyrimido[4,5-b]quinoline-4,5(3H,10H)-dione]: the Emax under setting [1] was < 5%.

With `CC(C)Cn1c2ccccc2c(=O)c2c(=O)n(-c3ccccc3)c(C(C)C)nc21` [10-isobutyl-2-isopropyl-3-phenylpyrimido[4,5-b]quinoline-4,5(3H,10H)-dione], under setting [1], the Emax is < 5%.

Consider `Cn1c2ccccc2c(=O)c2c(=O)n(-c3ccccc3)c(C3CCC3)nc21` [Example 1.1, 2-cyclobutyl-10-methyl-3-phenylpyrimido[4,5-b]quinoline-4,5(3H,10H)-dione], for which the Emax (HEK293, 24 h, read-out: Amax [%]) is 258%. Moreover, half-maximal activity under setting [2] (AC50) was put at 1.3 µM.

Take `C=CCn1c2ccccc2c(=O)c2c(=O)n(-c3ccccc3)c(C(C)C)nc21` [Example 1.2, 10-allyl-2-isopropyl-3-phenylpyrimido[4,5-b]quinoline-4,5(3H,10H)-dione]: under setting [3], the Emax was 63%.

Regarding `CC(C)c1nc2[nH]c3ccccc3c(=O)c2c(=O)n1-c1ccccc1` [Example 1.3, 2-isopropyl-3-phenylpyrimido[4,5-b]quinoline-4,5(3H,10H)-dione], the Emax under setting [3] was 279%. This compound also showed an AC50 under setting [2] of 6.1 µM.

In the case of `C=CCn1c2ccccc2c(=O)c2c(=O)n(-c3ccccc3)c(C3CCC3)nc21` [Example 1.4, 10-allyl-2-cyclobutyl-3-phenylpyrimido[4,5-b]quinoline-4,5(3H,10H)-dione], the Emax under setting [3] was 279%. Under setting [2], this compound gave an AC50 of 4 µM.

In the case of `O=c1c2ccccc2[nH]c2nc(C3CCC3)n(-c3ccccc3)c(=O)c12` [Example 1.5, 2-cyclobutyl-3-phenylpyrimido[4,5-b]quinoline-4,5(3H,10H)-dione], under setting [3], the Emax came to 170%. Under setting [2], this compound gave an AC50 of 1.1 µM.

Regarding `CC1CC(c2nc3c(c(=O)c4ccccc4n3C)c(=O)n2-c2ccccc2)C1` (stereo not drawn) [Example 1.6, 10-methyl-2-(3-methylcyclobutyl)-3-phenylpyrimido[4,5-b]quinoline-4,5(3H,10H)-dione], the Emax under setting [3] stood at 165%. This compound also registered a half-maximal activity concentration (AC50) under setting [2] of 6.1 µM.

As to `Cn1c2ccccc2c(=O)c2c(=O)n(-c3ccccc3)c(C3CC(C)(C)C3)nc21` [Example 1.7, 2-(3,3-dimethylcyclobutyl)-10-methyl-3-phenylpyrimido[4,5-b]quinoline-4,5(3H,10H)-dione], under setting [3], the Emax was determined as 7%. For the same compound, the AC50 under setting [2] stood at 3.8 µM.

Turning to `COC1CC(c2nc3c(c(=O)c4ccccc4n3C)c(=O)n2-c2ccccc2)C1` (stereo not drawn) [Example 1.8, 2-(3-methoxycyclobutyl)-10-methyl-3-phenylpyrimido[4,5-b]quinoline-4,5(3H,10H)-dione], under setting [3], the Emax was 18%. Also, the activity under setting [2] was half-maximal at 11.8 µM (AC50).

In the case of `CCC(CC)c1nc2c(c(=O)c3ccccc3n2C)c(=O)n1-c1ccccc1` [Example 1.9, 10-methyl-2-(pentan-3-yl)-3-phenylpyrimido[4,5-b]quinoline-4,5(3H,10H)-dione], under setting [3], the Emax is 200%. Under setting [2], this compound displayed an AC50 of 11.7 µM.

For the compound `Cn1c2ccccc2c(=O)c2c(=O)n(-c3ccccc3)c(C3CCCC3)nc21` [Example 1.10, 2-cyclopentyl-10-methyl-3-phenylpyrimido[4,5-b]quinoline-4,5(3H,10H)-dione], the Emax under setting [3] was 277%. The compound also registered an AC50 under setting [2] of 11 µM.

For the compound `Cn1c2ccccc2c(=O)c2c(=O)n(-c3ccccc3)c(C3CC3)nc21` [Example 1.11, 2-cyclopropyl-10-methyl-3-phenylpyrimido[4,5-b]quinoline-4,5(3H,10H)-dione], the Emax under setting [3] stood at 188%. The AC50 under setting [2] came to 9.1 µM.

Turning to `CCCCc1nc2c(c(=O)c3ccccc3n2C)c(=O)n1-c1ccccc1` [Example 1.12, 2-butyl-10-methyl-3-phenylpyrimido[4,5-b]quinoline-4,5(3H,10H)-dione], the Emax under setting [3] came to 391%. Moreover, under setting [2], half-maximal activity (AC50) was put at 4.8 µM.

For the compound `COCCCc1nc2c(c(=O)c3ccccc3n2C)c(=O)n1-c1ccccc1` [Example 1.13, 2-(3-methoxypropyl)-10-methyl-3-phenylpyrimido[4,5-b]quinoline-4,5(3H,10H)-dione], under setting [3], the Emax worked out at 13%.
